This is an account of results in paper PMC9879939, “Synergy of ruthenium metallo-intercalator, [Ru(dppz)2(PIP)]^2+, with PARP inhibitor Olaparib in non-small cell lung cancer cells” (Scientific Reports, 2023).

The subject of the experiment is A549 spheroids. Briefly: Spheroids growth inhibition studies. It is filed as cell-based, human. The note with it: Ru-PIP 25 µM. The method, then:
Spheroids establishment was attempted for A549 lung cancer cells using hanging drop method. 20 µL of cell suspension containing 2000, 4000, 6000, 8000 and 10,000 cells were dropped onto the surface of petri dish lid and incubated at 37 °C, such that each drop will contain single spheroid. After three days of incubation, each spheroid formed was transferred onto agarose-coated (50 µL, 0.6%) 96-well plates containing 80 µL growth media and further incubated for 15 days at 37 °C, such that each well contained a single spheroid. Formation of spheroids was observed and imaged every three days using a light microscope with a 4 × objective lens connected to a digital camera. During growth, 50% of the media was replaced every three days. The growth in volume of each spheroid was determined according to a published method. At least six spheroids were grown per seeding density for each independent experiment.
Spheroids were grown as described initially. Initial cell seeding density was chosen such that each spheroid reached a diameter of approximately 400 μm after three days (4,000 cells/well for A549 cells). After spheroids formation, spheroids were incubated with Ru-PIP (25 µM), Olaparib (5 µM) or both for a period of 12 days. The structural integrity of spheroids upon treatment was observed and imaged for every three days using a light microscope with a 4 × objective lens connected to a digital camera, and the volume of each spheroid was measured according to a published method. Prior to imaging, 50% of treatment-containing medium was replaced (every three days). At least six spheroids were grown per treatment for each independent experiment.

With `[Ru+2].c1ccc(-c2nc3c4cccnc4c4ncccc4c3[nH]2)cc1.c1ccc2nc3c4cccnc4c4ncccc4c3nc2c1.c1ccc2nc3c4cccnc4c4ncccc4c3nc2c1` [Ru-PIP, [Ru(dppz)2(PIP)]^2+], the spheroid growth result (12 days) is recorded as “prevented spheroid growth”. Further, where the note is “Olaparib 5 µM or both, 12 days after treatment initiation”, the “structural integrity of pre-formed spheroids” value is given as “remained structurally intact”.
